# Assay results published in PMC10589313 (Nature Communications, 2023).
# “And” between values parts separate entries of the source, which are not always exact repeats. Equal entries are not always repeated.
# Tests used:
# Type in all cases: cell-based
# [1] = biological target: T1, human H4R N147Y mutant (Homo sapiens, UniProt Q9H3N8, N147Y); assay: TGFα shedding assay, H4R N147Y mutant; details: for EC50: EC50 (nM)
# T1 construct: a mutant H4R (human, full-length, and untagged); expressed in transfected cells; host or cells: HEK293A
# Protocol: (§1) The mutants were prepared using the primers listed in Supplementary Table 2. […] The chimeric Gαq/i1 subunit comprises the Gαq backbone and Gαi1-derived six-amino acid C-terminus and couples with Gi-coupled H4R but induces a Gq-dependent TGFα shedding response. After culturing for 1 day and incubating at 37 °C in a 5% CO2 incubator, the transfected cells were harvested by trypsinization, neutralized with Dulbecco’s modified Eagle’s medium containing 10% fetal calf serum (FCS) and penicillin–streptomycin, washed once with Hank’s balanced salt solution (HBSS) containing 5 mM of HEPES (pH 7.4), and resuspended in 6 mL of the HEPES-containing HBSS. The cell suspension was seeded into a 96-well plate at a volume of […] per well (typically, 48 wells per transfected cells) and incubated for 30 min in the CO2 incubator. Test compounds (10×, diluted in 0.01% BSA and 5 mM of HEPES-containing HBSS, […] volume) were added to duplicate wells and incubated for 1 h. After centrifugation, the conditioned medium ([…]) was transferred to an empty 96-well plate. AP reaction solution [10 mM of p-nitrophenylphosphate (p-NPP), 120 mM of Tris–HCl (pH 9.5), 40 mM of NaCl, and 10 mM of MgCl2] was dispensed into the cell culture plates and plates containing conditioned media ([…]). Absorbance was measured at 405 nm before and after a 1-h incubation period at 25 °C using a microplate reader (iMark™ Microplate Absorbance Reader; BioRad). Ligand-induced AP-TGFα release was calculated as previously described. The vehicle-treated AP-TGFα release signal was set as a baseline unless otherwise specified. AP-TGFα release signals were fitted with a four-parameter sigmoidal concentration-response curve, from which EC50 and Emax values were obtained, using GraphPad Prism 9 software (GraphPad Prism). Negative values of logarithmically transformed EC50 values (pEC50) were used to calculate the mean and standard error of independent experiments.
# (§2) All functional study data were analyzed using Prism 9 (GraphPad) and are presented as mean ± standard error of the mean (SEM) of three independent experiments. Statistical analyses were performed using Prism 9 (GraphPad) with one-way analysis of variance followed by Dunnett’s post-hoc test. Values with p < 0.05 are considered statistically significant.
# [2] = biological target: T2, human H4R C98A mutant (Homo sapiens, UniProt Q9H3N8, C98A); assay: TGFα shedding assay, H4R C98A mutant
# T2 construct: a mutant H4R (human, full-length, and untagged); expressed in transfected cells; host or cells: HEK293A
# Protocol: as §1, §2
# [3] = biological target: T3, human H4R T99A mutant (Homo sapiens, UniProt Q9H3N8, T99A); assay: TGFα shedding assay, H4R T99A mutant
# T3 construct: a mutant H4R (human, full-length, and untagged); expressed in transfected cells; host or cells: HEK293A
# Protocol: as §1, §2
# [4] = Imetit (M) -5 (log concentration), raw replicate values
# T3 sequence (Q9H3N8 whole entry T99A): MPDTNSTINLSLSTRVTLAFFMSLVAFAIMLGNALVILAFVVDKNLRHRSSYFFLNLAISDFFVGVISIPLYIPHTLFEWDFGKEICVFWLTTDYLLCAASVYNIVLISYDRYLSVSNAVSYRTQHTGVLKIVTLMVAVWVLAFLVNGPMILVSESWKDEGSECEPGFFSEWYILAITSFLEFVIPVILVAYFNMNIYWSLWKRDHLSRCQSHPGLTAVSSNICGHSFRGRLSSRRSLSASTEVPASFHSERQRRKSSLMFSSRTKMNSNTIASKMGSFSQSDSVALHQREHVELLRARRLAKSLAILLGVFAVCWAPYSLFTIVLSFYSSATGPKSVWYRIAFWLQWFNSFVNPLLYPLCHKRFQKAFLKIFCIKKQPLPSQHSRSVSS
# T2 sequence (Q9H3N8 whole entry C98A): as the sequence (Q9H3N8 whole entry T99A) above, with C98A, A99T counted along it
# T1 sequence (Q9H3N8 whole entry N147Y): as the sequence (Q9H3N8 whole entry T99A) above, with A99T, N147Y counted along it
smiles,measurement,setting,value
"N=C(N)SCCc1cnc[nH]1 [Imetit, imetit]",EC50,[1]; N147Y mutant,319 nM
same,EC50,"[1]; N147Y, single experiments, source data Figure 4e-f",632 nM and 127 nM and 200 nM
same,"Shedding assay response, N147Y",[1]; [4],5.667 and 6.627 and 11.6194 and 11.6248 and 10.5662 and 9.653 and 14.7457 and 12.0475 and 16.0734
same,fold of change,"[1]; N147Y mutant, EC50 relative to WT",10.7 fold
same,Emax,[1]; read-out: Emax (%) mean ± SEM,11.1 ± 1.47%
same,EC50,[2]; C98A mutant,479 nM
same,fold of change,"[2]; C98A mutant, EC50 relative to WT",16.3 fold
same,EC50,"[2]; EC50 (nM), C98A mutant",486 nM
same,"Shedding assay response, C98A",[2]; [4],13.5967 and 12.9858 and 12.6952 and 16.5163 and 19.8944 and 18.7443 and 18.3535 and 16.3047 and 17.1057
same,Emax,[2]; read-out: Emax (%) mean ± SEM,17.1 ± 1.72%
same,EC50,[3],76 nM
same,"Shedding assay response, T99A",[3]; [4],14.3742 and 14.7391 and 15.3687 and 10.9344 and 9.709 and 12.0103 and 13.6177 and 15.7879 and 16.7579
same,fold of change,"[3]; T99A mutant, EC50 relative to WT",2.5 fold
same,Emax,[3]; read-out: Emax (%) mean ± SEM,13.7 ± 1.67%
